{"source": "patent US12246026B2", "about": "“Ganaxolone for use in treatment of status epilepticus” (Marinus Pharmaceuticals, Inc., priority 2019, dated 2025)", "key": {"RSE patients": {"test_system": "RSE patients", "assay": "Phase 2 open-label dose range study, efficacy in RSE patients", "format": "in vivo, human", "conditions": "for GNX plasma concentration whose acute maintenance was associated with improved seizure control on EEG: PK/PD relationship, FIGS. 13A-13D", "procedure": "Eligible patients were treated with continuous adjunctive IV ganaxolone infusion. Initial dosing included a 3-minute bolus dose (25 or 30 mg) with a continuous infusion at rates ranging from 10 to 85 mg/hour for up to 96-hours, followed by an 18-hour study drug taper.\nThe study enrolled 17 patients divided among 3 dosing cohorts. The IV solution utilizes Captisol® as an excipient for solubilization of ganaxolone. In an agreement with the Food and Drug Administration (FDA), the Captisol exposure for patients participating in Study 1042-SE-2001 was not to exceed 50 g/day. Given the daily Captisol limit, 3 different doses of GNX IV solution were investigated; 500, 650, and 713 mg/day total GNX referred to as the low, medium, and high dose level cohorts, respectively."}, "[1]": {"assay": "Human PK in subjects taking strong CYP inducers", "format": "in vivo", "conditions": "subjects taking strong CYP inducers (carbamazepine and phenytoin)"}, "subjects with SE": {"test_system": "subjects with SE", "assay": "Phase 2 Study 1042-SE-2001 open-label group, seizure control by EEG", "format": "in vivo, human", "from_the_text": "Example 2 is an ongoing, double-blind, randomized, placebo-controlled Phase 2 study designed to evaluate the safety, tolerability, and efficacy of adjunctive IV GNX in subjects with SE who have failed initial treatment with benzodiazepines and at least one AED. The study consists of a small open-label group to optimize the infusion parameters and provide a preliminary assessment of safety, efficacy, and tolerability of GNX administration, followed by a double-blind group who will be randomized to receive GNX or placebo in a 1:1 ratio. In both the open-label and double-blind groups, the study drug treatment is adjunctive therapy to standard of care, and subjects will receive a study drug bolus dose with a concurrent continuous infusion treatment with the goal of administering a therapeutic dose as quickly as possible to stop the seizures and prevent permanent neurological damage. Specifically, study drug will be added to the standard of care at the time that the first 2nd-line IV AED has failed and the second 2nd-line IV AED is medically indicated during the treatment of SE. Study drug must be administered with the second-line IV AED as close to the dose initiation of the second 2nd-line IV AED as possible, but before the initiation of the third-line IV anesthetic for burst suppression.\nGanaxolone for this study is a proprietary IV formulation solubilized by Captisol® (betadex sulfobutyl ether sodium). The maximum level of Captisol® will not exceed 50 g/per day. Ganaxolone for IV administration will be provided to the site as individual glass vials containing 3 mg/mL of ganaxolone for the open-label group and 5 mg/mL of ganaxolone for the double-blind group. Placebo for double-blind group IV administration will be provided to the site as blinded matching vials containing 0.9% sodium chloride solution.\nTotal adjunctive GNX therapy infusion treatment is planned to be 3 or 5 days (including an 18-hour taper). All subjects will have a 3-minute bolus dose with a continuous infusion at the rate from about 10 mg/hour to about 85 mg/hour or from about 18 mg/hr to 80 mg/hr, and an 18-hour taper. Once study drug administration is started it will be delivered for a full 2 or 4 days (48 or 96 hours) prior to tapering. At the end of second day administration, the decision to administer the study drug for an additional 2 days (i.e., for a total of 4 days) will be made. If in the investigator's medical judgment the subject will continue benefitting from study drug administration, ganaxolone will be administered to the additional 2 days.\nAs of 22 Mar. 2019, 5 subjects were enrolled into the Study 1042-SE-2001 open-label group under the original protocol that limits daily Captisol exposure at 35 g/day. […] The initial EEG pattern post-infusion initiation was described by study physicians as a “light” burst suppression that was maintained for several hours in all subjects. […] It was observed that when GNX exposure was lowered (20 mg/hr for 2 hours and ending with 10 mg/hr for the remaining 18 hours on Day 1) in order not to exceed this limit, seizure control could not be maintained and seizure activity (but not SE) re-occurred as evidenced by EEG changes. […] Seizure activity relapsed when plasma concentrations of GNX decreased <500 ng/mL in 4 out of 5 subjects."}, "[2]": {"conditions": "Medium cohort, 650 mg/day, n = 4"}, "[3]": {"conditions": "Target cohort, 713 mg/day, n = 8"}}, "note": "“Also recorded” adds a separate entry of the source.", "data": [{"smiles": "CC(=O)[C@H]1CC[C@H]2[C@@H]3CC[C@H]4C[C@](C)(O)CC[C@]4(C)[C@H]3CC[C@]12C", "note": "[Ganaxolone, 3α-hydroxy-3β-methyl-5α-pregnan-20-one]", "values": [{"measurement": "reduction in EEG seizure burden", "setting": "RSE patients; 15 evaluable patients, low, medium and high cohorts", "value": "rapid and dose-dependent sustained reduction in EEG seizure burden"}, {"measurement": "No SE Relapse at anytime during the 4-wk follow up period", "setting": "RSE patients; Low cohort, 500 mg/day, 1 of 2 (1 died)", "value": 50, "unit": "%"}, {"measurement": "No escalation to IV anesthetics within 24 hrs from infusion initiation(Primary Endpoint)", "setting": "RSE patients; Low cohort, 500 mg/day, n = 5", "value": 100, "unit": "%"}, {"measurement": "No escalation to additional IV AEDs or IV anesthetics for status relapse at any time through 24 hrs after GNX discontinuation", "setting": "RSE patients; Low cohort, 500 mg/day, n = 5", "value": 60, "unit": "%"}, {"measurement": "Status-free through 24 hrs from infusion initiation", "setting": "RSE patients; Low cohort, 500 mg/day, n = 5", "value": 100, "unit": "%"}, {"measurement": "No SE Relapse at anytime during the 4-wk follow up period", "setting": "RSE patients; Medium cohort, 650 mg/day, 2 of 3 (1 ET)", "value": 67, "unit": "%"}, {"measurement": "No escalation to IV anesthetics within 24 hrs from infusion initiation(Primary Endpoint)", "setting": "RSE patients; [2]", "value": 100, "unit": "%"}, {"measurement": "No escalation to additional IV AEDs or IV anesthetics for status relapse at any time through 24 hrs after GNX discontinuation", "setting": "RSE patients; [2]", "value": 75, "unit": "%"}, {"measurement": "Status-free through 24 hrs from infusion initiation", "setting": "RSE patients; [2]", "value": 100, "unit": "%"}, {"measurement": "GNX plasma concentration whose acute maintenance was associated with improved seizure control on EEG", "setting": "RSE patients", "value": "≥ 500", "unit": "ng/mL"}, {"measurement": "GNX plasma concentration whose acute maintenance was associated with improved seizure control on EEG", "setting": "RSE patients; listed as GNX", "value": "> 500", "unit": "ng/mL"}, {"measurement": "No SE Relapse at anytime during the 4-wk follow up period", "setting": "RSE patients; Target cohort, 713 mg/day, 6 of 6 (1ET, 1 died)", "value": 100, "unit": "%"}, {"measurement": "No escalation to IV anesthetics within 24 hrs from infusion initiation(Primary Endpoint)", "setting": "RSE patients; [3]", "value": 100, "unit": "%"}, {"measurement": "No escalation to additional IV AEDs or IV anesthetics for status relapse at any time through 24 hrs after GNX discontinuation", "setting": "RSE patients; [3]", "value": 100, "unit": "%"}, {"measurement": "Status-free through 24 hrs from infusion initiation", "setting": "RSE patients; [3]", "value": 88, "unit": "%"}, {"measurement": "patients not requiring additional IV AEDS or IV anesthetics for status relapse up to 4 weeks", "setting": "RSE patients; all cohorts, 14 patients of 17", "value": 82, "unit": "%"}, {"measurement": "patients who achieved and maintained SE cessation within the first 24-hours", "setting": "RSE patients; all cohorts, 16 patients of 17", "value": 94, "unit": "%"}, {"measurement": "patients not requiring escalation to an IV anesthetic drug for SE control within the first 24-hours", "setting": "RSE patients; all cohorts, n=17", "value": 100, "unit": "%"}, {"measurement": "Median time to SE cessation from initiation of GNX treatment", "setting": "RSE patients; all dose groups, n=15 evaluable patients", "value": 5, "unit": "min"}, {"measurement": "patients with SE cessation achieved in <30 min", "setting": "RSE patients; evaluable patients", "value": "14 out of 15"}, {"measurement": "lowering in overall ganaxolone levels and exposure", "setting": "[1]", "value": "~45", "unit": "%"}, {"measurement": "duration seizure protection was maintained", "setting": "subjects with SE; 1 subject, amended protocol", "value": 48, "unit": "h"}, {"measurement": "time to RSE cessation after starting IV GNX infusion", "setting": "subjects with SE; 1 subject, amended protocol, Captisol 50 g/day, NCSE due to tumor", "value": "≤ 3", "unit": "min"}, {"measurement": "seizure relapse on weaning off GNX", "setting": "subjects with SE; 1 subject, amended protocol, listed as GNX", "value": "no seizure relapse; also recorded: without seizure relapse"}, {"measurement": "EEG response after start of GNX", "setting": "subjects with SE; Subject 004-101, 30 mg bolus, 85 mg/hr", "value": "Almost immediately the EEG showed seizure suppression"}, {"measurement": "time of seizure relapse post infusion start", "setting": "subjects with SE; Subject 004-101, at 20 mg/hr", "value": "approximately 5 hours"}, {"measurement": "time at which additional intervention was required post-dose initiation", "setting": "subjects with SE; Subject 004-102", "value": "approximately 42.5 hours"}, {"measurement": "seizure activity on EEG", "setting": "subjects with SE; Subject 004-102, 60 minutes and 2 hours post-dose initiation", "value": "no seizure activity"}, {"measurement": "time of return of concerning EEG pattern post-dose initiation", "setting": "subjects with SE; Subject 004-102, at 20 mg/hr", "value": "5 to 6", "unit": "h"}, {"measurement": "time to SE abort after bolus administration", "setting": "subjects with SE; Subject 006-101", "value": "≤ 1", "unit": "min"}, {"measurement": "seizure activity on EEG", "setting": "subjects with SE; Subject 006-101, 60 minutes and 2 hours post-dose initiation", "value": "no seizure activity"}, {"measurement": "time of seizure relapse post infusion start", "setting": "subjects with SE; Subject 006-101, at 20 mg/hr", "value": "approximately 6 hours"}, {"measurement": "effect of bolus on SE", "setting": "subjects with SE; Subject 006-102", "value": "SE aborted upon administration of the bolus"}, {"measurement": "seizure activity on EEG", "setting": "subjects with SE; Subject 006-102, 60 minutes, 2 hours and 4 hours post-dose initiation", "value": "no seizure activity"}, {"measurement": "time of seizure relapse post infusion start", "setting": "subjects with SE; Subject 006-102, at 20 mg/hr", "value": "approximately 6 hours"}, {"measurement": "seizure return during treatment", "setting": "subjects with SE; Subject 015-101, focal convulsive SE", "value": "Seizures did not return during the treatment period"}, {"measurement": "effect of initial bolus plus continuous infusion on seizures/SE (EEG)", "setting": "subjects with SE; all 5 subjects, 30 mg bolus, 85 mg/hr 2 h then 40 mg/hr 2 h, listed as GNX", "value": "immediate cessation of seizures; also recorded: immediate cessation of SE"}, {"measurement": "subjects with seizure activity relapse when plasma GNX decreased <500 ng/mL", "setting": "subjects with SE; original protocol, Captisol 35 g/day", "value": "4 out of 5"}]}]}
